Measured values from PMC12730265, “Combinatorial Antimicrobial Effects of Imidazolium-Based Ionic Liquids and Antifungals on Model Fungal Organisms” (Biomolecules, 2025).
Read-outs that look alike come from different tables or passages of the source.

How the values were obtained:
HeLa cells [1] = experiment: Checkerboard cytotoxicity assay IL + Clotrimazole, CellTiter-Blue; details: human, 24 h
Description: HeLa cells (Kyoto line) were grown at 37 °C in 5% CO2 using DMEM media with 4.5 g/L glucose + Sodium Pyruvate + L-Glutamine (VWRV02-0101) with 10% FBS. Antibiotics such as Pen/Strep were not used during treatment with ILs or AFs to exclude the possibility of interaction with other antibiotics. HeLa cells were grown to 70–90% confluency in T75 dishes; cells were dissociated with Trypsin/EDTA […] for 3 min and resuspended in 25 mL DMEM +10% FBS; 180 μL cells in media were added to each of the 96 wells on the plasma-treated culture plate and incubated at 37 °C overnight. Solutions of Clotrimazole plus either [HMIM]Cl and [OMIM]Cl were created and 20 μL of IL, AF, or IL + AF were added to 96-well plate and incubated at 37 °C for 24 h. Promega CellTiter-Blue Cell Viability reagent was used to evaluate cytotoxicity in accordance with the manufacturer’s guidelines. For each well, 20 μL of CellTiter-Blue was added and then the plates were incubated for either 1, 2, or 4 h and fluorescence was measured at Ex/EM 485/590 nm using a Biotek Synergy HT fluorometer Winooski, VT USA. EC50 and FIC calculations were performed using these treatments. EC50 calculations were performed using ATTB Bioquest online EC50 calculator and FIC scores were calculated as described in Doern et al..
One open question is whether addition of either of these ILs at sub-cytotoxic concentrations can improve effectiveness of AFs in fungi vs. mammalian cells. To evaluate this, we performed checkerboard assays for both [HMIM]Cl and [OMIM]Cl in the presence of Clotrimazole and calculated FIC scores as described in C. albicans checkerboard assays.

S. pombe = experiment: MIC50 by microbroth dilution; type: cell-based; details: Schizosaccharomyces pombe
Description: (§1) A single colony was picked from each streak to prepare overnight in 5 mL fresh YPD broth and placed into a tilted rotating incubator set at 30 °C and 40 rpm overnight. After ~16–20 h, a fresh dilution in media (1:200) was made and used for the experiment. […] Finally, diluted culture was added to each well of a sterile 96-well plate containing serially diluted aliquots of each RTIL to a total volume of 100 µL. The plate was incubated at 30 °C overnight with shaking for 24 and 48 h. At both timepoints, the yeast was manually resuspended in the plate by pipetting and we measured the OD600 using a Spectramax M5 multimode plate reader (Molecular Devices, San Jose, CA, USA).
(§2) The four species of yeast tested included three common lab strains of non-pathogenic yeast strains, S. boulardii, S. cerevisiae, and S. pombe, and one common human pathogen, C. albicans.

S. boulardii = experiment: MIC50 by microbroth dilution; type: cell-based; details: Saccharomyces cerevisiae
Description: as §1, §2

C. albicans [2] = experiment: MIC50 by microbroth dilution; type: cell-based; details: Candida albicans, 48 h
Description: as §1, §2

S. cerevisiae = experiment: MIC50 by microbroth dilution; type: cell-based; details: Saccharomyces cerevisiae
Description: as §1, §2

C. albicans [3] = experiment: Kirby–Bauer disk diffusion assay on IL-containing YPD plates; type: cell-based
Description: Assessment of fungal growth on YPD plates with AFs + ILs served as an indicator for the combined efficacy of treatment of ILs and AFs. YPD agar plates were made with addition of increasing concentrations of [HMIM]Cl at 0, 2.5, 6.25, and 25 mM or [OMIM]Cl at 0, 0.25, 0.625, and 2.5 mM. Plates solidified and dried on bench for 24 h before use. IN total, 400 μL of S. cerevisiae or C. albicans liquid culture at mid-log phase OD600 0.5 was spread using sterile glass beads to achieve even distribution. Following addition of culture, the plates were allowed to dry for 30 min before the addition of antifungal disks. Antifungal-infused disks were prepared using the stock solutions of solubilized antibiotics; 15 μL of each of the 4 azole antifungals at stock concentrations was pipetted onto a sterile 6 mm cellulose disk (BD). […] After plate drying was complete, sterile forceps were used to transfer the disks to the media, and the plate was grown upright in an incubator overnight at 30 °C. The following day, photographs were taken of the plates to visualize the zone of inhibition (ZOI) created by the combined treatment. Adobe Illustrator 2023 CC was used to perform digital measurements of ZOI diameters.
To assess the potential for combinatorial effects of ILs and AFs in yeast, Kirby–Bauer disk diffusion assays were performed for C. albicans and S. cerevisiae for [HMIM]Cl and [OMIM]Cl with all four AFs. […] The addition of 6 mm cellulose disks infused with equal volumes of solubilized AFs to the plates occurred after plating of C. albicans or S. cerevisiae, allowing for growth for 48 h at 23 °C, at which point the plates were evaluated for the establishment of zones of inhibition (ZOI). Digital pictures were acquired of all plates, and measurements of ZOI diameter were performed digitally as described in the Methods. […] With progressively increasing amounts of both [HMIM]Cl and [OMIM]Cl, ZOIs increased for all Afs, including Fluconazole and Itraconazole, which appear to be ineffective without IL in the Kirby–Bauer disk assay. Experiments were performed in triplicate and ZOIs were measured for all plates.

HeLa cells [4] = experiment: CellTiter-Blue cytotoxicity assay; type: cell-based, human
Description: EC50 and FIC calculations were performed using these treatments.
To understand the degree to which imidazolium chloride-based ILs of varying chain length are toxic to human cells, we treated HeLa cells with [HMIM]Cl or [OMIM]Cl with each of the four azole AFs for 24 h and evaluated cytotoxicity. Following 24 h of exposure in liquid culture at defined serial dilutions in a 96-well plate format, cells were evaluated for viability using CellTiter-Blue assay in which living cells can metabolize resazurin into resorufin, a fluorescent reporter molecule detected by plate spectroscopy. Consistent with findings for bacteria and yeast microorganisms, high concentrations of imidazolium chloride-based ILs are toxic to HeLa cells (Figure 6B). Moreover, HeLa cells treated with ILs with longer alkyl chain lengths [OMIM]Cl are less viable than when treated with [HMIM]Cl at the same final concentration. […] With respect to all four AFs, the degree of specificity for these drugs to fungi vs. human cells was clear (Figure 6B).

[5] = 50% growth after 48 h in YPD media, OD600, read-out: MIC50

## Clc1ccccc1C(c1ccccc1)(c1ccccc1)n1ccnc1 [Clotrimazole]
HeLa cells [1]
  Clotrimazole concentration used for FIC, alone: 250 mg/L
S. pombe; [5]
  MIC50: 1 µg/mL
S. boulardii; [5]
  MIC50: 1 µg/mL
C. albicans [2]; [5]
  MIC50: 1 µg/mL
S. cerevisiae; [5]
  MIC50: 1 µg/mL
C. albicans [3]; [HMIM]Cl 0 mM in plate
  Zone of inhibition (ZOI) diameter: 10 mm
C. albicans [3]; [HMIM]Cl 2.5 mM in plate
  Zone of inhibition (ZOI) diameter: 10.33 mm
C. albicans [3]; [HMIM]Cl 6.25 mM in plate
  Zone of inhibition (ZOI) diameter: 25.67 mm
C. albicans [3]; [HMIM]Cl 25 mM in plate
  Zone of inhibition (ZOI) diameter: 30.67 mm
C. albicans [3]; [OMIM]Cl 0 M in plate
  Zone of inhibition (ZOI) diameter: 10 mm
C. albicans [3]; [OMIM]Cl 0.25 mM in plate
  Zone of inhibition (ZOI) diameter: 11 mm
C. albicans [3]; [OMIM]Cl 0.625 mM in plate
  Zone of inhibition (ZOI) diameter: 23.33 mm
C. albicans [3]; [OMIM]Cl 2.5 mM in plate
  Zone of inhibition (ZOI) diameter: 44.67 mm
C. albicans [3]; absence of added IL
  inhibition of C. albicans growth around disk: minimal inhibition

## CCCCCCn1cc[n+](C)c1.[Cl-] [[HMIM]Cl, 1-hexyl-3-methylimidazolium chloride]
HeLa cells [1]
  IL concentration used for FIC, IL alone: 12.5 mM
  IL concentration used for FIC, in combination: 12.5 mM
S. pombe; 48 h
  MIC50: 6.25 mM
S. boulardii; 48 h
  MIC50: 6.25 mM
C. albicans [2]
  MIC50: 25 mM
S. cerevisiae; 48 h
  MIC50: 6.25 mM
HeLa cells [4]; 1.563 mM [HMIM]Cl
  toxicity on HeLa cells: low levels of toxicity
HeLa cells [4]; Homo sapiens, HeLa, 24 h, read-out: EC50 (50% viability)
  EC50: 14.1 mM
